Results published in the NIST ThermoML archive (doi:10.1016/j.jct.2005.11.012).

Legend:
[1] = xn = mol fraction of the nth substance listed; details: 101 kPa, Liquid
[2] = refractive index (Na D-line) (dimensionless); xn = mol fraction of the nth substance listed; details: 101 kPa, Liquid
[3] = 101 kPa, Liquid
[4] = refractive index (Na D-line) (dimensionless); details: 101.33 kPa, Liquid

BrC(Br)C(Br)Br [1,1,2,2-tetrabromoethane] + CCCCCCCO
Details | mass density, [1] [kg/m3] | refractive index, [2]
293.15 K, x1 = 0.099 | 1001.11 | 1.44056
293.15 K, x1 = 0.1999 | 1189.38 | 1.45821
293.15 K, x1 = 0.3001 | 1383.2 | 1.47658
293.15 K, x1 = 0.3995 | 1582.25 | 1.49566
293.15 K, x1 = 0.5006 | 1792.24 | 1.51595
293.15 K, x1 = 0.5987 | 2003.6 | 1.5368
293.15 K, x1 = 0.6993 | 2229.07 | 1.55935
293.15 K, x1 = 0.799 | 2461.79 | 1.58311
293.15 K, x1 = 0.8992 | 2706 | 1.60832
293.15 K, x1 = 1 | 2963.2 | 1.63535
303.15 K, x1 = 0.099 | 992.57 | 1.43619
303.15 K, x1 = 0.1999 | 1179.18 | 1.45352
303.15 K, x1 = 0.3001 | 1371.29 | 1.47156
303.15 K, x1 = 0.3995 | 1568.62 | 1.49038
303.15 K, x1 = 0.5006 | 1776.88 | 1.51053
303.15 K, x1 = 0.5987 | 1986.59 | 1.53124
303.15 K, x1 = 0.6993 | 2210.42 | 1.55368
303.15 K, x1 = 0.799 | 2441.56 | 1.57727
303.15 K, x1 = 0.8992 | 2684.21 | 1.60236
303.15 K, x1 = 1 | 2939.86 | 1.62926

CCCCCCCO [heptan-1-ol]
Details | mass density, [3] [kg/m3] | refractive index, [4]
293.15 K | 822.39 | 1.42397
303.15 K | 815.41 | 1.42002

BrC(Br)C(Br)Br [1,1,2,2-tetrabromoethane] + CCCCCO
Details | mass density, [1] [kg/m3] | refractive index, [2]
293.15 K, x1 = 0.1009 | 1048.36 | 1.43257
293.15 K, x1 = 0.2014 | 1276.63 | 1.45508
293.15 K, x1 = 0.3004 | 1497.47 | 1.47732
293.15 K, x1 = 0.4003 | 1716.5 | 1.49977
293.15 K, x1 = 0.5014 | 1934.64 | 1.52252
293.15 K, x1 = 0.6001 | 2144.16 | 1.54476
293.15 K, x1 = 0.7001 | 2353.22 | 1.56734
293.15 K, x1 = 0.7998 | 2558.61 | 1.58989
293.15 K, x1 = 0.8997 | 2761.73 | 1.61255
293.15 K, x1 = 1 | 2963.2 | 1.63535
303.15 K, x1 = 0.1009 | 1038.85 | 1.42823
303.15 K, x1 = 0.2014 | 1265.1 | 1.45052
303.15 K, x1 = 0.3004 | 1484.08 | 1.47247
303.15 K, x1 = 0.4003 | 1701.36 | 1.49475
303.15 K, x1 = 0.5014 | 1917.88 | 1.51723
303.15 K, x1 = 0.6001 | 2125.93 | 1.53938
303.15 K, x1 = 0.7001 | 2333.58 | 1.5616
303.15 K, x1 = 0.7998 | 2537.64 | 1.58403
303.15 K, x1 = 0.8997 | 2739.49 | 1.60652
303.15 K, x1 = 1 | 2939.86 | 1.62926

CCCCCCCCO [octan-1-ol] + BrC(Br)C(Br)Br
x2 = 0
Details | mass density, [1] [kg/m3] | refractive index, [2]
293.15 K | 824.99 | 1.42958
303.15 K | 818.09 | 1.42562

BrC(Br)C(Br)Br [1,1,2,2-tetrabromoethane] + CCCCCCCCCCO
Details | mass density, [1] [kg/m3] | refractive index, [2]
293.15 K, x1 = 0.1023 | 968.19 | 1.44929
293.15 K, x1 = 0.202 | 1114.37 | 1.46226
293.15 K, x1 = 0.3012 | 1272.36 | 1.47639
293.15 K, x1 = 0.4012 | 1446.62 | 1.49207
293.15 K, x1 = 0.5007 | 1636.66 | 1.50944
293.15 K, x1 = 0.6006 | 1847.04 | 1.52888
293.15 K, x1 = 0.7011 | 2081.74 | 1.55057
293.15 K, x1 = 0.8006 | 2340.68 | 1.57518
293.15 K, x1 = 0.9006 | 2632.79 | 1.60321
293.15 K, x1 = 1 | 2963.2 | 1.63535
303.15 K, x1 = 0.1023 | 960.09 | 1.44494
303.15 K, x1 = 0.202 | 1104.97 | 1.45758
303.15 K, x1 = 0.3012 | 1261.57 | 1.47147
303.15 K, x1 = 0.4012 | 1434.34 | 1.48697
303.15 K, x1 = 0.5007 | 1622.78 | 1.50399
303.15 K, x1 = 0.6006 | 1831.45 | 1.52315
303.15 K, x1 = 0.7011 | 2064.32 | 1.54493
303.15 K, x1 = 0.8006 | 2321.36 | 1.56925
303.15 K, x1 = 0.9006 | 2611.47 | 1.59716
303.15 K, x1 = 1 | 2939.86 | 1.62926

CCCCCCCCCCO [decan-1-ol]
Details | mass density, [3] [kg/m3] | refractive index, [4]
293.15 K | 829.7 | 1.43706
303.15 K | 822.85 | 1.43302

CCCCCCCCO [octan-1-ol]
Details | mass density, [3] [kg/m3] | refractive index, [4]
293.15 K | 824.99 | 1.42958
303.15 K | 818.09 | 1.42562

CCCCCCCCCCO [decan-1-ol] + BrC(Br)C(Br)Br
x2 = 0
Details | mass density, [1] [kg/m3] | refractive index, [2]
293.15 K | 829.7 | 1.43706
303.15 K | 822.85 | 1.43302

CCCCCCO [hexan-1-ol] + BrC(Br)C(Br)Br
x2 = 0
Details | mass density, [1] [kg/m3] | refractive index, [2]
293.15 K | 818.92 | 1.41826
303.15 K | 811.73 | 1.41423

CCCCCO [pentan-1-ol] + BrC(Br)C(Br)Br
x2 = 0
Details | mass density, [1] [kg/m3] | refractive index, [2]
293.15 K | 815.03 | 1.40995
303.15 K | 807.6 | 1.40592

BrC(Br)C(Br)Br [1,1,2,2-tetrabromoethane]
Details | mass density, [3] [kg/m3] | refractive index, [4]
293.15 K | 2963.2 | 1.63535
303.15 K | 2939.86 | 1.62926

CCCCCCCO [heptan-1-ol] + BrC(Br)C(Br)Br
x2 = 0
Details | mass density, [1] [kg/m3] | refractive index, [2]
293.15 K | 822.39 | 1.42397
303.15 K | 815.41 | 1.42002

BrC(Br)C(Br)Br [1,1,2,2-tetrabromoethane] + CCCCCCCCO
Details | mass density, [1] [kg/m3] | refractive index, [2]
293.15 K, x1 = 0.101 | 989.26 | 1.44433
293.15 K, x1 = 0.2013 | 1161.15 | 1.45995
293.15 K, x1 = 0.2997 | 1338.99 | 1.47641
293.15 K, x1 = 0.3994 | 1529.17 | 1.49411
293.15 K, x1 = 0.5002 | 1732.98 | 1.51358
293.15 K, x1 = 0.6003 | 1947.95 | 1.53421
293.15 K, x1 = 0.6998 | 2175.4 | 1.55634
293.15 K, x1 = 0.7998 | 2419.28 | 1.58047
293.15 K, x1 = 0.9011 | 2684.42 | 1.60696
293.15 K, x1 = 1 | 2963.2 | 1.63535
303.15 K, x1 = 0.101 | 980.93 | 1.44015
303.15 K, x1 = 0.2013 | 1151.32 | 1.45566
303.15 K, x1 = 0.2997 | 1327.63 | 1.4717
303.15 K, x1 = 0.3994 | 1516.19 | 1.48929
303.15 K, x1 = 0.5002 | 1718.29 | 1.50826
303.15 K, x1 = 0.6003 | 1931.52 | 1.52869
303.15 K, x1 = 0.6998 | 2157.22 | 1.55075
303.15 K, x1 = 0.7998 | 2399.36 | 1.57464
303.15 K, x1 = 0.9011 | 2662.77 | 1.60101
303.15 K, x1 = 1 | 2939.86 | 1.62926

CCCCCO [pentan-1-ol]
Details | mass density, [3] [kg/m3] | refractive index, [4]
293.15 K | 815.03 | 1.40995
303.15 K | 807.6 | 1.40592

BrC(Br)C(Br)Br [1,1,2,2-tetrabromoethane] + CCCCCCO
Details | mass density, [1] [kg/m3] | refractive index, [2]
293.15 K, x1 = 0.1001 | 1021.6 | 1.43743
293.15 K, x1 = 0.2007 | 1227.75 | 1.45713
293.15 K, x1 = 0.3004 | 1434.26 | 1.4771
293.15 K, x1 = 0.4004 | 1643.89 | 1.49787
293.15 K, x1 = 0.5005 | 1856.54 | 1.51914
293.15 K, x1 = 0.6008 | 2072.22 | 1.54101
293.15 K, x1 = 0.6999 | 2288.24 | 1.56327
293.15 K, x1 = 0.8012 | 2512.37 | 1.58693
293.15 K, x1 = 0.9001 | 2734.51 | 1.61052
293.15 K, x1 = 1 | 2963.2 | 1.63535
303.15 K, x1 = 0.1001 | 1012.63 | 1.43304
303.15 K, x1 = 0.2007 | 1216.94 | 1.45244
303.15 K, x1 = 0.3004 | 1421.62 | 1.47214
303.15 K, x1 = 0.4004 | 1629.48 | 1.49244
303.15 K, x1 = 0.5005 | 1840.42 | 1.51355
303.15 K, x1 = 0.6008 | 2054.51 | 1.53523
303.15 K, x1 = 0.6999 | 2269.06 | 1.55749
303.15 K, x1 = 0.8012 | 2491.76 | 1.58095
303.15 K, x1 = 0.9001 | 2712.53 | 1.60452
303.15 K, x1 = 1 | 2939.86 | 1.62926

CCCCCCO [hexan-1-ol]
Details | mass density, [3] [kg/m3] | refractive index, [4]
293.15 K | 818.92 | 1.41826
303.15 K | 811.73 | 1.41423
